Laboratory results as given in US12686809B2, “Methods and formulations for treating oil-containing porous media for oil recovery” (UNIVERSITY OF WYOMING, priority 2020, dated 2026).

How the values were obtained:
Assay type in all cases: physicochemical
[1] = IFT between surfactant solutions and reservoir crude oil at ambient conditions (spinning drop); settings: ~0.1 wt % in blank brine
Protocol: Spinning drop method: The spinning drop method was utilized to measure ultra-low IFT values. The instrumentation included a KRÜSS Spinning Drop Tensiometer was employed and the spinning drop method was performed as follows. A crude oil droplet was launched from a capillary plug into a capillary tube filled with the surfactant solution. While the glass capillary tube was rotating, the software-controlled instrument measured the IFT between oil and brine by analyzing the drop shape which depends on the balance between interfacial and centrifugal forces. At low rotational speeds, the IFT is the dominating force and the droplet is spherical in shape. In this case the software uses Young-Laplace equation to calculate IFT. When the angular velocity is high, the droplet is elongated (length is at least 4 times the diameter) and Vonnegut's equation is used to calculate the IFT.
(§1) Measurement of the IFT between surfactant solutions/reservoir oil at ambient conditions were first performed to, e.g., examine the impact of the hydrophobic chain length on the interfacial properties of cationic surfactants. For these measurements, a KRÜSS Spinning Drop Tensiometer was used.

[2] = Density difference between surfactant solution and crude oil; settings: ~0.1 wt % in blank brine vs reservoir crude oil; ambient conditions
Protocol: Density: The density of the two phases (oil and brine; or oil and surfactant solution) was measured at atmospheric pressure and 22° C. using a DMA45 density meter from Anton Paar. The density of the two phases was also measured at reservoir conditions (120° C., 6000 psi) using an in-line density meter (DMA HPM, Anton Paar).
as §1

[3] = Microemulsion phase behavior of surfactant solution/crude oil; settings: for phase behavior (in words): about 0.1 wt % in blank brine/crude oil 1:1, about 80° C. versus ambient; for volume of surfactant phase formed between oil and brine: about 80° C.
Protocol: Microemulsion phase behavior: The microemulsion phase behavior of surfactants with different structures was investigated with respect to temperature. The effect of surfactant hydrophobic chain length on phase behavior was examined at ambient temperature (about 22° C.) and at elevated temperature (about 80° C.). For these experiments, glass pipettes were filled with brine/crude oil at a ratio of about 1:1 or surfactant solution/crude oil at a ratio of about 1:1. The pipettes were then sealed with a torch and shaken at the speed of about 250 rpm for about 24 hours (h). The pipettes were then monitored for several days and images were recorded.
Microemulsion phase behavior tests can generally be utilized to characterize surfactant stability. The phase behavior of surfactants can depend on distinct parameters such as temperature, surfactant concentration, and/or brine salinity. The effect of temperature on phase behavior was systematically investigated for various surfactants. Here, the phase behavior test was first performed on a pipette containing blank brine and the crude oil.
FIG. 13 is a series of exemplary images showing the phase behavior of cationic surfactants with a chloride head—TOAC, DTAC, CTAC, and TSAC—at ambient temperatures (left panel) and at about 80° C. (right panel). FIG. 14 is each a series of exemplary images showing the phase behavior of cationic surfactants with a bromide head—TOAB, DTAB, CTAB, and TODAB—at ambient temperatures (left panel) and at about 80° C. (right panel). For these tests, each surfactant was made into a surfactant solution (about 0.1 wt % in blank brine).

[4] = Krafft and cloud point temperatures / solution cloudiness at ambient conditions; settings: about 0.1 wt % in blank brine; for solution clarity/cloudiness (in words): about 22° C., ambient conditions
Protocol: Krafft and cloud point temperatures at ambient conditions: At ambient conditions, the Krafft point and cloud point temperatures were determined as follows. Fresh brine solutions containing about 0.1 wt % of surfactant solution were prepared and poured into 25 ml glass vials. The vials were capped and placed upright in a water bath and/or heater at an initial temperature of about 22° C. […] For each increment, it typically took at least 20 minutes for the brine to reach thermal equilibrium (temperature stabilization) with the water bath. The cloud and Krafft points were determined visually by recording the temperatures at which cloudiness was observed or disappeared. Images of the brine solutions were captured after each temperature stabilization.
The effect of the hydrophobic (alkyl) chain length on the stability and aqueous solubility/cloudiness of cationic surfactants was examined by measuring Krafft points at elevated pressure and temperature were performed. FIG. 15 is a series of exemplary images of solutions of cationic surfactants having a bromide head with increasing carbon atom numbers from left to right—DTAB (left panel), CTAB (center panel), and TODAB (right panel). For these tests, each surfactant was made into a surfactant solution (about 0.1 wt % in blank brine). The images were captured at about 22° C.
(left panel) and about 75° C. (right panel).
(§2) The cloud points of certain nonionic surfactants were measured at high pressure (about 6,000 psi) and temperature. […] (center panel) and about 99.9° C. (right panel), at a pressure of about 6,000 psi.

[5] = Krafft and cloud point temperatures at reservoir conditions (IFT cell, 6,000 psi); settings: about 0.1 wt % in blank brine; about 6,000 psi
Protocol: as §2
(right panel), at a pressure of about 6,000 psi.

[6] = Critical micelle concentration by surface tension (pendant drop) at ambient conditions; settings: surface tension against air
Protocol: Pendant drop method: The pendant drop method was mainly utilized when the density of the suspended phase is higher than that of the bulk phase. The same device as that used in the captive/rising bubble method is used for the pendant drop method. The method consists of a drop suspended from a needle to determine interfacial and surface tension of liquid/liquid and liquid/gas systems. The critical micelle concentration (CMC) of cationic surfactants was measured using surface tension measurements between the surfactant solutions and air at ambient conditions. […] Therefore, generally, the measurements were performed at a concentration above CMC (about 0.1 wt %), which is the one typically used in the field.
CMC measurements were performed to, e.g., investigate the effect of the hydrophobic chain length on the behavior of cationic surfactant molecules at the interface. […] As a baseline, the surface tension of blank brine was measured to be about 75.4 mN/m.
FIGS. 18A-18C show exemplary data for CMC measurements of surfactants with chloride heads and various alkyl chain lengths and depicting the variations of surface tension with concentration. Specifically, FIGS. 18A, 18B, and 18C show exemplary surface tension data for DTAC, CTAC, and TSAC.

[7] = IFT between surfactant solutions and reservoir oil at reservoir conditions; settings: about 100° C. and about 1,000 psi
Protocol: Captive/rising bubble method: The captive/rising bubble method was utilized to measure the dynamic IFT and contact angle at reservoir conditions. This method was performed as follows. The lighter phase was injected through a needle to form a bubble inside the heavier phase. The IFT between the two phases was calculated from the shape of the bubble using the Young-Laplace equation through Axisymmetric Drop Shape Analysis (ADSA). The state-of-the-art interfacial tension and contact angle (IFT/CA) apparatus adopted for the measurements is described and used by S. Saraji et al., Wettability of Supercritical Carbon Dioxide/Water/Quartz Systems: Simultaneous Measurement of Contact Angle and Interfacial Tension at Reservoir Conditions, Langmuir, 29 (2013) 6856-6866. This experimental setup can operate at elevated temperature (up to 200° C.) and pressure (up to 8000 psi). […] For contact angle measurement, a droplet was injected from the needle onto the solid substrate and monitored by capturing several images with time and analyzing them using ImageJ software.
Pendant drop method: The pendant drop method was mainly utilized when the density of the suspended phase is higher than that of the bulk phase. […] The critical micelle concentration (CMC) of cationic surfactants was measured using surface tension measurements between the surfactant solutions and air at ambient conditions. […]

SMILES | phase behavior (in words) [3] | volume of surfactant phase formed between oil and brine [3] | solution clarity/cloudiness (in words) [4] | temperature at which the solution became and stayed clear ([4]; heated while stirring, ambient pressure) | Krafft point [5] | IFT reduction relative to the blank brine [7] | γ (interfacial tension surfactant solution/reservoir oil) [1] | Δρ (change in density) [2] | CMC [6]
CCCCCCCCCCCC[N+](C)(C)C.[Br-] [DTAB, Dodecyltrimethylammonium bromide] | – | – | – | – | – | – | 1.1 mN/m | 0.3835 g/mL | –
CCCCCCCCCCCC[N+](C)(C)C.[Cl-] [DTAC, Dodecyltrimethylammonium chloride] | – | – | – | – | – | – | 1.6 mN/m | 0.3826 g/mL | about 0.005 wt %
CCCCCCCCCCCCCCCC[N+](C)(C)C.[Br-] [CTAB, Hexadecyltrimethylammonium bromide] | – | – | – | – | – | – | 0.15 mN/m | 0.382 g/mL | –
CCCCCCCCCCCCCCCC[N+](C)(C)C.[Cl-] [CTAC, Cetyltrimethyl ammonium chloride] | – | – | – | – | – | – | 0.11 mN/m | 0.3834 g/mL | about 0.003 wt %

The next lines start with results.

phase behavior (in words) [3] | volume of surfactant phase formed between oil and brine [3] | solution clarity/cloudiness (in words) [4] | temperature at which the solution became and stayed clear ([4]; heated while stirring, ambient pressure) | Krafft point [5] | IFT reduction relative to the blank brine [7] | SMILES | γ (interfacial tension surfactant solution/reservoir oil) [1] | Δρ (change in density) [2] | CMC [6]
poor solubility | about 0.1 cm^3 | – | – | – | – | CCCCCCCCCCCCCCCCCC[N+](C)(C)C.[Br-] [TODAB, Trimethyloctadecylammonium bromide] | 0.07 mN/m | 0.3831 g/mL | –
poor solubility | about 0.1 cm^3 | cloudiest | about 75 °C | about 40 °C | – | CCCCCCCCCCCCCCCCCC[N+](C)(C)C.[Cl-] [TSAC, Trimethyloctadecylammonium chloride] | – | 0.3829 g/mL | about 0.001 wt %
less influenced by temperature | – | clearest | – | – | – | CCCCCCCC[N+](C)(C)C.[Cl-] [TOAC, Trimethyloctylammonium chloride] | 5.05 mN/m | 0.3822 g/mL | –
less influenced by temperature | – | already clear at ambient conditions | – | – | about 7 mN/m | CCCCCCCC[N+](C)(C)C.[Br-] [TOAB, Trimethyloctylammonium bromide] | 8.4 mN/m | 0.3823 g/mL | –
